Patent publication US20210386367A1, “DEVICES AND SYSTEMS FOR GASTROINTESTINAL MICROBIOME DETECTION AND MANIPULATION” (Progenity, Inc., priority 2018, published 2021)
Converted amounts (≈) assume the structure as drawn. Like-named read-outs stand apart in the source and are kept apart here.

Key:
[1] = tested on: E. coli MMX 1312; experiment: Broth microdilution MIC (time-kill study); format: cell-based, Escherichia coli
[2] = tested on: E. coli ATCC 25922; experiment: Broth microdilution MIC (time-kill study); format: cell-based, Escherichia coli
[3] = tested on: S. pyogenes ATCC 49399; experiment: Time-kill assay; format: cell-based, Streptococcus pyogenes; details: 2×, 4×, 8× MIC; 2, 6, 24 hr
[4] = tested on: Bacteroides spp. spontaneous mutants; experiment: Broth microdilution MIC of spontaneous mutants; format: cell-based; details: for MIC: read-out: MIC
Method in brief: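 Isolates from drug selection plates were subcultured on agar containing drug at the selection concentration and identified by MALDI, then MIC was determined by CLSI broth microdilution (M100-S28) with serial two-fold dilutions. Plates were pre-reduced 1 h in an anaerobic chamber; final inoculum ~1×10^6 CFU/mL.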

[5] = tested on: Streptococcus spp. spontaneous mutants; details: S. pneumoniae ATCC 49619; CLSI QC range shown in parentheses; cited from earlier work
[6] = tested on: S. pneumoniae ATCC 49619; experiment: Broth microdilution MIC (time-kill study); format: cell-based, Streptococcus pneumoniae
[7] = tested on: B. vulgatus ATCC 8482; experiment: Broth microdilution MIC (time-kill study); format: cell-based, Bacteroides vulgatus
[8] = tested on: Veillonella spp. clinical isolates; experiment: MIC distribution against clinical isolates; format: cell-based
Description: (n=19 V. parvula, n=9 Veillonella spp., n=1 Veillonella dispr., n=1 V. atypica) clinical isolates (μg/mL).
As used herein, “minimum inhibitory concentration” or “MIC” refers to the lowest concentration of an antimicrobial agent, for example, an antimicrobial agent as described herein, required to inhibit the growth of an organism. […] “MIC90” represents the MIC value at which ≥90% of the strains within a test population are inhibited; the 90th percentile.
Many susceptibility testing methods are known in the art and can be used as described herein (see, e.g., Jorgensen and Ferraro (2009) Clinical Infectious Diseases 49:1749-1755; and Maurer et al. (2017) Infectious Disease Reports 9:6839; the entire contents of each of the foregoing are incorporated herein by reference). For example, antimicrobial susceptibility can be determined using conventional culture based methods such as the broth or agar dilution test. In these dilution tests, the bacterial isolate of interest is inoculated onto different media that include serial dilutions of an antimicrobial agent, and incubated under appropriate conditions (e.g., overnight at 37° C.) to allow for growth to occur. Following the incubation period, the media is examined to determine bacterial growth. The lowest concentration of antibiotic that prevents growth represents the minimal inhibitory concentration (MIC). Broth dilution tests can be miniaturized and mechanized allowing for reproducibility and high throughput.

[9] = tested on: S. pneumoniae ATCC 49619; experiment: Time-kill assay; format: cell-based, Streptococcus pneumoniae; details: 2×, 4×, 8× MIC; 2, 6, 24 hr
[10] = tested on: E. coli ATCC 35218 (TEM-1 β-lactamase producer); experiment: Broth microdilution MIC (time-kill study); format: cell-based, Escherichia coli
[11] = tested on: Bacteroides spp. (B. fragilis ATCC 25285, B. vulgatus, B. ovatus MMX 3503); experiment: Agar dilution MIC (spontaneous mutation study; strain in conditions); format: cell-based
[12] = tested on: Clostridium spp.; experiment: Agar dilution MIC, 10 clinical isolates; format: cell-based
[13] = tested on: S. agalactiae ATCC 13813; experiment: Broth microdilution MIC (time-kill study); format: cell-based, Streptococcus agalactiae
[14] = MIC 0.5 μg/mL, 30 Veillonella spp. isolates
[15] = MIC 1 μg/mL, 30 Veillonella spp. isolates
[16] = MIC 2 μg/mL, 30 Veillonella spp. isolates
[17] = MIC 4 μg/mL, 30 Veillonella spp. isolates
[18] = MIC 8 μg/mL, 30 Veillonella spp. isolates
[19] = MIC 16 μg/mL, 30 Veillonella spp. isolates
[20] = MIC 32 μg/mL, 30 Veillonella spp. isolates
[21] = 10 Clostridium spp. clinical isolates

CO/N=C(\C(=O)N[C@@H]1C(=O)N2C(C(=O)O)=C(CSc3nc(=O)c(=O)[nH]n3C)CS[C@H]12)c1csc(N)n1 [ceftriaxone]
MIC ([1]; E. coli MMX 1312): 4 µg/mL (≈ 7.21 µM) | MIC ([1]; Escherichia coli, MMX1312, broth microdilution, read-out: MIC): 4 µg/mL (≈ 7.21 µM) | MIC ([2]; E. coli ATCC 25922): 0.06 µg/mL (≈ 0.108 µM) | MIC ([2]; Escherichia coli, ATCC25922, broth microdilution, read-out: MIC): 0.06 µg/mL (≈ 0.108 µM) | time-kill kinetics outcome (bactericidal = ≥3 log reduction in CFU per mL) [3]: bactericidal effect at 4× and 8×MIC at 24 hr | MIC ([4]; B. fragilis ATCC 25285, selected on rifaximin 4X MIC, Colony A): 16 µg/mL | MIC ([4]; B. fragilis ATCC 25285, selected on rifaximin 4X MIC, Colony B): 32 µg/mL | MIC ([4]; B. fragilis ATCC 25285, selected on rifaximin 8X MIC, Colony A): 32 µg/mL | MIC ([4]; B. fragilis ATCC 25285, selected on rifaximin 8X MIC, Colony B): 32 µg/mL | MIC ([4]; B. fragilis ATCC 25285 Parent): 32 µg/mL | MIC ([4]; B. ovatus MMX 3503, selected on rifaximin 4X MIC, Colony A): 128 µg/mL | MIC ([4]; B. ovatus MMX 3503, selected on rifaximin 4X MIC, Colony B): 64 µg/mL | MIC ([4]; B. ovatus MMX 3503, selected on rifaximin 8X MIC, Colony A): > 128 µg/mL | MIC ([4]; B. ovatus MMX 3503, selected on rifaximin 8X MIC, Colony B): 64 µg/mL | MIC ([4]; B. ovatus MMX 3503 Parent): 128 µg/mL | broth microdilution MIC higher than parent ([4]; B. vulgatus ATCC 8482, one of two isolates selected at 4× the MIC): 4 fold | MIC ([4]; B. vulgatus ATCC 8482, selected on ceftriaxone 4X MIC, Colony A): 2 µg/mL | MIC ([4]; B. vulgatus ATCC 8482, selected on ceftriaxone 4X MIC, Colony B): 4 µg/mL | MIC ([4]; B. vulgatus ATCC 8482, selected on rifaximin 4X MIC, Colony A): 2 µg/mL | MIC ([4]; B. vulgatus ATCC 8482, selected on rifaximin 4X MIC, Colony B): 1 µg/mL | MIC ([4]; B. vulgatus ATCC 8482, selected on rifaximin 8X MIC, Colony A): 2 µg/mL | MIC ([4]; B. vulgatus ATCC 8482, selected on rifaximin 8X MIC, Colony B): 2 µg/mL | MIC ([4]; B. vulgatus ATCC 8482 Parent (Table 50)): 1 µg/mL | MIC ([4]; B. vulgatus ATCC 8482 Parent (Table 54)): 1 µg/mL | MIC, CLSI QC range [5]: (0.03-0.12)^1 μg/mL | MIC ([6]; S. pneumoniae ATCC 49619): 0.06 µg/mL (≈ 0.108 µM) | MIC ([6]; Streptococcus pneumoniae, ATCC49619, broth microdilution, read-out: MIC): 0.06 µg/mL (≈ 0.108 µM) | MIC ([7]; B. vulgatus ATCC 8482): 2 µg/mL (≈ 3.61 µM) | MIC ([7]; Phocaeicola vulgatus, ATCC8482, broth microdilution, read-out: MIC): 2 µg/mL (≈ 3.61 µM) | Cumulative percentage of isolates inhibited at MIC [8]: 100.0% | Number of test isolates at MIC [8]: 1 | Cumulative percentage of isolates inhibited at MIC [8, 14]: 10.0% | Number of test isolates at MIC [8, 14]: 3 | Cumulative percentage of isolates inhibited at MIC [8, 15]: 23.3% | Number of test isolates at MIC [8, 15]: 4 | Cumulative percentage of isolates inhibited at MIC [8, 16]: 26.7% | Number of test isolates at MIC [8, 16]: 1 | Cumulative percentage of isolates inhibited at MIC [8, 17]: 30.0% | Number of test isolates at MIC [8, 17]: 1 | Cumulative percentage of isolates inhibited at MIC [8, 18]: 40.0% | Number of test isolates at MIC [8, 18]: 3 | Cumulative percentage of isolates inhibited at MIC [8, 19]: 86.7% | Number of test isolates at MIC [8, 19]: 14 | Cumulative percentage of isolates inhibited at MIC [8, 20]: 96.7% | Number of test isolates at MIC [8, 20]: 3 | time-kill kinetics outcome (bactericidal = ≥3 log reduction in CFU per mL) [9]: all three drug concentrations tested demonstrated bactericidal effects at 24 hr | MIC ([10]; E. coli ATCC 35218): 0.03 µg/mL (≈ 0.0541 µM) | MIC ([10]; Escherichia coli, ATCC35218): 0.03 µg/mL (≈ 0.0541 µM) | MIC ([11]; B. fragilis and B. ovatus isolates, read-out: initial MIC values (agar dilution)): 128 µg/mL (≈ 231 µM) | MIC ([11]; Bacteroides fragilis, ATCC25285, read-out: Agar MIC): 128 µg/mL (≈ 231 µM) | MIC ([11]; Bacteroides ovatus, ATCC25285, read-out: Agar MIC): 128 µg/mL (≈ 231 µM) | MIC ([11]; Phocaeicola vulgatus, ATCC 25285 / ATCC 8482, read-out: Agar MIC): 4 µg/mL (≈ 7.21 µM) | MIC ([11]; over evaluated Bacteroides spp., read-out: MIC values (agar dilution)): 4 to 128 µg/mL (≈ 7.21 to 231 µM) | isolates susceptible [12]: all the isolates were susceptible | % S [12, 21]: 100% | MIC50 [12, 21]: 8 µg/mL (≈ 14.4 µM) | MIC90 [12, 21]: 16 µg/mL (≈ 28.9 µM) | MIC range [12, 21]: 0.5 to 16 µg/mL | MIC50 ([12]; Clostridium): 8 µg/mL (≈ 14.4 µM) | MIC90 ([12]; Clostridium): 16 µg/mL (≈ 28.9 µM) | Mode ([12]; modal MIC, 10 Clostridium spp. clinical isolates): 16 µg/mL | MIC ([13]; S. agalacttae ATCC 13813 (so in the source)): 0.015 µg/mL (≈ 0.027 µM) | MIC ([13]; Streptococcus agalactiae, ATCC13813, broth microdilution, read-out: MIC): 0.015 µg/mL (≈ 0.027 µM)
